Results from patent US5795885A, “Method of inhibiting profileration of cells by administering an aminosterol compound” (priority 1995, dated 1998).
In brackets after ≈: the same amount, converted by molar mass.

Columns and labels:
[1] = tested on: stage 59-60 Xenopus tadpoles
[2] = tested on: chick embryo vitelline capillaries; assay: chick embryo vitelline capillary regression assay; format: in vivo; set-up: key to vitelline capillary regression: +: Vascular reactivity; 0: No vascular reactivity; +/-: Equivocal reactivity; settings: for vitelline capillary regression: 60 minutes
Method: Using the chick embryo vitelline capillaries assay, compounds were tested for their ability to induce capillary regression. Each compound was applied in 0.1 ml of 15% Ficol 400 and PBS onto the embryo, and vascular regression was assessed after 60 minutes.
The 3-day chick embryo consists of an embryonic disc from which numerous vessels emerge and return, forming a "figure 8"-shaped structure--the embryo in the center with vascular loops extending outward over both poles. […] Following a lag period of around 15 minutes, the constriction of continuity between capillary and secondary vessels, generally on the "venous" side, was observed. Continued pulsatile blood flow progressed, resulting in a "swelling" of the blind tube, followed by a pinching off of the remaining connection and formation of an enclosed vascular sac resembling a "blood island." This process progressed until only the largest vessels remained intact.

P. aerug = assay: antibiotic activity (MIC); format: cell-based

CC(C)CCC[C@@H](C)[C@H]1CC[C@H]2[C@@H]3[C@H](O)C[C@H]4C[C@H](NCCCNCCCCN)CC[C@]4(C)[C@H]3CC[C@]12C [Compound 370]
tadpole response similar to FX 3 ([1]; tadpole assay): exhibiting pharmacologic activity similar to that seen for FX 3

C[C@H](CCC(=O)O)[C@H]1CC[C@H]2[C@@H]3[C@H](O)C[C@@H]4C[C@@H](NCCCNCCCCNCCCN)CC[C@]4(C)[C@H]3CC[C@]12C [Compound 413]
tadpole response similar to compound 1436 ([1]; tadpole assay): produce effects like those produced by compound 1436
vitelline capillary regression ([2]; 1 μg applied): 0

CC(CCC(=O)O)[C@H]1CCC2C3C(CC[C@@]21C)[C@@]1(C)CC[C@@H](NCCN)C[C@H]1C[C@H]3O (stereo partly shown)
MIC (P. aerug): 64 µg/mL (≈ 147 µM)

CC(COS(=O)(=O)O)C(=O)CC[C@@H](C)[C@H]1CC[C@H]2[C@@H]3[C@H](O)C[C@H]4C[C@@H](NCCCNCCCCN)CC[C@]4(C)[C@H]3CC[C@]12C (stereo partly shown)
MIC (P. aerug): 128 µg/mL (≈ 199 µM)

CC(C)C(CCC(C)C1CCC2C3C(O)CC4CC(NCCCNCCCCN)CCC4(C)C3CCC12C)OS(=O)(=O)O (stereo not shown)
Tadpole: GI (gastrointestinal) ([1]; 10 μg/mL): -
Tadpole: M (melanocytes) ([1]; 10 μg/mL): -
Tadpole: Mus (muscle) ([1]; 10 μg/mL): -
Tadpole: V (vascular) ([1]; 10 μg/mL): +

COC(=O)CC[C@@H](C)[C@H]1CC[C@H]2[C@@H]3CC[C@H]4C[C@H](NCCCNCCCCNCCCN)CC[C@]4(C)[C@H]3CC[C@]12C [Compound 458]
tadpole response similar to FX 3 ([1]; tadpole assay): exhibiting pharmacologic activity similar to that seen for FX 3

COC(=O)CC[C@@H](C)[C@H]1CC[C@H]2[C@@H]3C[C@@H](O)[C@H]4C[C@@H](NCCN)CC[C@]4(C)[C@H]3CC[C@]12C [Compound 432]
tadpole response similar to compound 1437 ([1]; tadpole assay): functionally similar to compound 1437

CC(C)CCCC(C)[C@H]1CCC2C3C(CC[C@@]21C)[C@@]1(C)CC[C@H](NCCCNCCCCN)C[C@@H]1C[C@H]3O (stereo partly shown)
MIC (P. aerug): 64 µg/mL (≈ 120 µM)

C[C@H](CCC(=O)O)[C@H]1CC[C@H]2[C@@H]3[C@H](O)C[C@@H]4C[C@H](NCCCNCCCCNCCCN)CC[C@]4(C)[C@H]3CC[C@]12C [Compound 412]
tadpole response similar to FX 3 ([1]; tadpole assay): exhibiting pharmacologic activity similar to that seen for FX 3
vitelline capillary regression ([2]; 0.001 μg applied): 0
vitelline capillary regression ([2]; 0.01 μg applied): 0
vitelline capillary regression ([2]; 0.1 μg applied): 0
vitelline capillary regression ([2]; 1 μg applied): +

C[C@H](CCC(=O)O)[C@H]1CC[C@H]2[C@@H]3[C@H](O)C[C@@H]4C[C@@H](NCCN)CC[C@]4(C)[C@H]3CC[C@]12C [Compound 415]
vitelline capillary regression ([2]; 0.001 μg applied): 0
vitelline capillary regression ([2]; 0.01 μg applied): +
vitelline capillary regression ([2]; 0.1 μg applied): +
vitelline capillary regression ([2]; 1 μg applied): +
activity in vitelline capillary regression assay (in words) ([2]; in vivo): especially active

COC(=O)CC[C@@H](C)[C@H]1CC[C@H]2[C@@H]3C[C@@H](O)[C@H]4C[C@H](NCCN)CC[C@]4(C)[C@H]3CC[C@]12C [Compound 431]
tadpole response similar to compound 1437 ([1]; tadpole assay): functionally similar to compound 1437

COC(=O)CCC(C)[C@H]1CCC2C3C[C@@H](O)[C@H]4C[C@@H](NCCN)CC[C@]4(C)C3CC[C@@]21C (stereo partly shown)
MIC (P. aerug): 64 µg/mL (≈ 143 µM)

CC(C)CCCC(C)[C@H]1CCC2C3C(CC[C@@]21C)[C@@]1(C)CC[C@H](N)C[C@@H]1C[C@H]3O (stereo partly shown)
MIC (P. aerug): > 256 µg/mL

CC(C)CCC[C@@H](C)[C@H]1CC[C@H]2[C@@H]3[C@H](O)C[C@H]4C[C@@H](N)CC[C@]4(C)[C@H]3CC[C@]12C [Compound 1364]
vitelline capillary regression ([2]; 0.001 μg applied): 0
vitelline capillary regression ([2]; 0.01 μg applied): 0
vitelline capillary regression ([2]; 0.1 μg applied): 0
vitelline capillary regression ([2]; 1 μg applied): +
vitelline capillary regression ([2]; 10 μg applied): +

COC(=O)CC[C@@H](C)[C@H]1CC[C@H]2[C@@H]3C[C@@H](O)[C@H]4C[C@H](NCCCNCCCCNCCCN)CC[C@]4(C)[C@H]3CC[C@]12C [Compound 465]
tadpole response similar to FX 3 ([1]; tadpole assay): exhibiting pharmacologic activity similar to that seen for FX 3

C[C@H](CCC(=O)O)[C@H]1CC[C@H]2[C@@H]3[C@H](O)C[C@H]4C[C@H](NCCCNCCCCN)CC[C@]4(C)[C@H]3CC[C@]12C [Compound 382]
vitelline capillary regression ([2]; 0.001 μg applied): 0
vitelline capillary regression ([2]; 0.01 μg applied): 0
vitelline capillary regression ([2]; 0.1 μg applied): 0
vitelline capillary regression ([2]; 1 μg applied): +
vitelline capillary regression ([2]; 10 μg applied): +

C[C@H](CCC(=O)O)[C@H]1CC[C@H]2[C@@H]3[C@H](O)C[C@@H]4C[C@H](NCCN)CC[C@]4(C)[C@H]3CC[C@]12C [Compound 414]
tadpole response similar to Fraction 1 ([1]; tadpole assay): pharmacologic activity similar to Fraction 1
vitelline capillary regression ([2]; 1 μg applied): 0

CC(C)CCC[C@@H](C)[C@H]1CC[C@H]2[C@@H]3[C@H](O)C[C@H]4C[C@@H](NCCCNCCCCN)CC[C@]4(C)[C@H]3CC[C@]12C [Compound 371]
tadpole response similar to compound 1436 ([1]; tadpole assay): produce effects like those produced by compound 1436
vitelline capillary regression ([2]; 0.001 μg applied): 0
vitelline capillary regression ([2]; 0.01 μg applied): 0
vitelline capillary regression ([2]; 0.1 μg applied): 0
vitelline capillary regression ([2]; 1 μg applied): +/-
vitelline capillary regression ([2]; 10 μg applied): +

C[C@H](CCC(=O)O)[C@H]1CC[C@H]2[C@@H]3[C@H](O)C[C@H]4C[C@@H](NCCCNCCCCN)CC[C@]4(C)[C@H]3CC[C@]12C [Compound 381]
vitelline capillary regression ([2]; 1 μg applied): 0

COC(=O)CC[C@@H](C)[C@H]1CC[C@H]2[C@@H]3C[C@@H](O)[C@H]4C[C@@H](NCCCNCCCCNCCCN)CC[C@]4(C)[C@H]3CC[C@]12C [Compound 466]
tadpole response similar to FX 3 ([1]; tadpole assay): exhibiting pharmacologic activity similar to that seen for FX 3

COC(=O)CC[C@@H](C)[C@H]1CC[C@H]2[C@@H]3[C@H](O)C[C@@H]4C[C@H](NCCN)CC[C@]4(C)[C@H]3CC[C@]12C [Compound 410]
tadpole response similar to compound 1437 ([1]; tadpole assay): functionally similar to compound 1437
vitelline capillary regression ([2]; 0.001 μg applied): 0
vitelline capillary regression ([2]; 0.01 μg applied): +/-
vitelline capillary regression ([2]; 0.1 μg applied): +/-
vitelline capillary regression ([2]; 1 μg applied): +

COC(=O)CC[C@@H](C)[C@H]1CC[C@H]2[C@@H]3CC[C@H]4C[C@@H](NCCCNCCCCNCCCN)CC[C@]4(C)[C@H]3CC[C@]12C [Compound 459]
tadpole response similar to FX 3 ([1]; tadpole assay): exhibiting pharmacologic activity similar to that seen for FX 3
